Molecules are shown by their SMILES.

One test deals with CROT gene expression. The test is described as follows: Expression of CROT in rat epidermal split containing sebaceous glands after topical PPARgamma agonist, real-time PCR. In kind it is in vivo. Particulars: topical 1% in acetone, female Fuzzy rats, standardized to 18S, versus carrier group; for CROT Relative induction - Kinetics (Hours) 0: 0 hours; for CROT Relative induction - Kinetics (Hours) 8: 8 hours; for CROT Relative induction - Kinetics (Hours) 24: 24 hours; for CROT Relative induction - Kinetics (Hours) 48: 48 hours; for CROT Relative induction - Kinetics (Hours) 96: 96 hours. An excerpt: Animals: Species: rat • Strain: Ico: Hsd: FUZZY-fz • Gender: female • Age: 10 weeks
Number per batch: 40 (8 animals per group)
Treatment: Route of administration: topical • Compound/batch: PPARgamma agonists:
A: 5-{4-[2-(methylpyridin-2-ylamino)ethoxy]-benzyl}thiazolidine-2,4-dione
B: (2-methoxyethoxymethoxy)naphthalene-2-carboxylic acid [4′-(2,4-dioxothiazolidin-5-ylmethyl)biphenyl-3-ylmethyl]methylamide or rosiglitazone
C: (S)-2-ethoxy-3-{4-[6-(3-heptyl-1-methyl-ureido)pyridin-2-yl]phenyl}propionic acid • Doses: 1% • Carrier: acetone (001) • Duration 96 hours
Method of evaluation: The animals are weighed at the beginning and at the end of the study. Skin biopsies are taken (6 samples of skin excised per rat) in order to analyse the expression of the genes (RNA extraction, reverse transcriptase and real-time PCR). The samples are stored overnight at 4° C. before incubation in 1M sodium bromide (NaBr) for 2 hours at 37° C. After incubation, the samples are separated into epidermis or dermis. The epidermal samples are stored at […]. Under these conditions, the sebaceous glands are in the epidermal split. PCRs are carried out, beginning with the CNAs originating from the epidermal splits containing sebaceous glands from control rats or rats treated with a PPARγ agonist: the mRNA is extracted using a column and quantified. The quality of the mRNAs is measured and is represented by the 18S/28S ratio. The results are standardized with respect to 18S, expressed as relative induction versus untreated animals (carrier group). The statistical analysis is obtained using internal software based on a modified Monte Carlo statistical analysis.
(In general: Quantitative PCR measures a nucleic acid by following its amplification.)

The subject of test [1] is CROT (carnitine O-octanoyltransferase) gene expression. The test is described as follows: Expression of CROT in Fuzzy rat epidermal split after 8 days of topical treatment, Affymetrix transcriptome analysis. It is filed as in vivo. Particulars: female Fuzzy rats, topical 1% once a day for 8 days, Affymetrix 1368426_at, control condition 601. As for the experimental part:
Fuzzy rat epidermal split expression data
The studies are carried out in female Fuzzy rats (Hsd: Fuzzy-fz) ten weeks old at the beginning of the study. The animals are treated at a dose of 1% (PPARg agonist rosiglitazone in solution in acetone) once a day for 8 days. Two hours after the final treatment, the animals are sacrificed by euthanasia and the skin on the back is removed. After incubation in dispase, the epidermis carrying the sebaceous glands is detached from the dermis (epidermal split). After grinding of the samples, the mRNA is prepared using Qiagen columns, in accordance with the supplier's instructions. The material thus prepared is subjected to large-scale transcriptome analysis on an Affymetrix platform. The data are subsequently standardized and, after statistical analysis, the results produced are expressed in arbitrary expression units (see below) accompanied, for each piece of data, by a statistical value for presence of the transcript (presence=1; absence=0).
Table 2: Measurement of the Expression of CROT in an Epidermal Split after 8 Days of Topical Treatment of FUZZY Rat Females with a PPARγ Agonist (Rosiglitazone) at 1%

On to `CN(CCOc1ccc(CC2SC(=O)NC2=O)cc1)c1ccccn1` (centres unmarked) [A, 5-{4-[2-(methylpyridin-2-ylamino)ethoxy]-benzyl}thiazolidine-2,4-dione], for which, in the test on CROT gene expression, the “CROT Relative induction - Kinetics (Hours) 0” value turned out to be 1, the “CROT Relative induction - Kinetics (Hours) 8” value was found to be 2.24, the “CROT Relative induction - Kinetics (Hours) 24” value was found to be 2.16 and the “CROT Relative induction - Kinetics (Hours) 48” value is 1.54. Further, the “CROT Relative induction - Kinetics (Hours) 96” value in the test with CROT gene expression is given as 0.94.

Regarding `CCCCCCCNC(=O)N(C)c1cccc(-c2ccc(C[C@H](OCC)C(=O)O)cc2)n1` [C, (S)-2-ethoxy-3-{4-[6-(3-heptyl-1-methyl-ureido)pyridin-2-yl]phenyl}propionic acid], in the test with CROT gene expression, the “CROT Relative induction - Kinetics (Hours) 0” value is 1, the “CROT Relative induction - Kinetics (Hours) 8” value turned out to be 0.40, the “CROT Relative induction - Kinetics (Hours) 24” value was 0.52 and the “CROT Relative induction - Kinetics (Hours) 48” value was 0.36. In addition, the “CROT Relative induction - Kinetics (Hours) 96” value in the test on CROT gene expression was found to be 0.20.

`CN(CCOc1ccc(CC2SC(=O)NC2=O)cc1)c1ccccn1` (centres unmarked) [rosiglitazone]: the “Expression after treatment with 1% rosiglitazone” value in test [1] is 742 arbitrary expression units.

For the origin of these results see patent publication US20110150772A1, “MODULATORS OF CARNITINE OCTANOYLTRANSFERASE IN THE TREATMENT OF ACNE, OF SEBORRHOEIC DERMATITIS OR OF HYPERSEBORRHOEA” (GALDERMA RESEARCH & DEVELOPMENT, priority 2008, published 2011).
